# Measured values: US7015215B2, “Pyrrolo[2,1-c][1,4] benzodiazepines compounds and process thereof” (Council of Scientific and Industrial Research, priority 2003, dated 2006)
# Assays:
# human tumor cell lines = experiment: NCI in vitro cytotoxicity SRB assay, mean graph midpoints over the panel; type: cell-based; details: 48 h continuous exposure
# Description: (§1) Biological Activity: In vitro biological activity studies were carried out at National Cancer Institute (U.S.A.).
# (§2) For each compound, dose response curves for each cell line were measured at a minimum of five concentrations at 10 fold dilutions. A protocol of 48 h continuous drug exposure was used, and a sulforhodamine B (SRB) protein assay was used to estimate cell viability or growth. The concentration causing 50% cell growth inhibition (GI50), total cell growth inhibition (TGI, 0% growth) and 50% cell death (LC50, −50% growth) compared with the control was calculated.
# MOLT-4 = experiment: NCI SRB cytotoxicity, Leukemia MOLT-4; type: cell-based, human; details: MOLT-4, Leukemia, 48 h
# Description: as §1, §2
# RPMI-8226 = experiment: NCI SRB cytotoxicity, Leukemia RPMI-8226; type: cell-based, human; details: RPMI-8226, Leukemia, 48 h
# Description: as §2
# SR = experiment: NCI SRB cytotoxicity, Leukemia SR; type: cell-based, human; details: 48 h
# Description: as §1, §2
# EKVX = experiment: NCI SRB cytotoxicity, Non-small-cell lung EKVX; type: cell-based, human; details: 48 h
# Description: as §1, §2
# NCI-H460 = experiment: NCI SRB cytotoxicity, Non-small-cell lung NCI-H460; type: cell-based, human; details: 48 h
# Description: as §1, §2
# COLO 205 = experiment: NCI SRB cytotoxicity, Colon COLO 205; type: cell-based, human; details: COLO 205, Colon, 48 h
# Description: as §1, §2
# HCT-15 = experiment: NCI SRB cytotoxicity, Colon HCT-15; type: cell-based, human; details: HCT-15, Colon, 48 h
# Description: as §1, §2
# HT-29 = experiment: NCI SRB cytotoxicity, Colon HT-29; type: cell-based, human; details: HT-29, Colon, 48 h
# Description: as §1, §2
# SW-620 = experiment: NCI SRB cytotoxicity, Colon SW-620; type: cell-based, human; details: SW-620, Colon, 48 h
# Description: as §1, §2
# SF-268 = experiment: NCI SRB cytotoxicity, CNS SF-268; type: cell-based, human; details: SF-268, CNS, 48 h
# Description: as §1, §2
# SF-295 = experiment: NCI SRB cytotoxicity, CNS SF-295; type: cell-based, human; details: SF-295, CNS, 48 h
# Description: as §1, §2
# SF-539 = experiment: NCI SRB cytotoxicity, CNS SF-539; type: cell-based, human; details: SF-539, CNS, 48 h
# Description: as §1, §2
# SNB-19 = experiment: NCI SRB cytotoxicity, CNS SNB-19; type: cell-based, human; details: SNB-19, CNS, 48 h
# Description: as §1, §2
# SNB-75 = experiment: NCI SRB cytotoxicity, CNS SNB-75; type: cell-based, human; details: SNB-75, CNS, 48 h
# Description: as §1, §2
# M14 = experiment: NCI SRB cytotoxicity, Melanoma M14; type: cell-based, human; details: 48 h
# Description: as §1, §2
# SK-MEL-28 = experiment: NCI SRB cytotoxicity, Melanoma SK-MEL-28; type: cell-based, human; details: SK-MEL-28, Melanoma, 48 h
# Description: as §1, §2
# SK-MEL-5 = experiment: NCI SRB cytotoxicity, Melanoma SK-MEL-5; type: cell-based, human; details: SK-MEL-5, Melanoma, 48 h
# Description: as §1, §2
# UACC-257 = experiment: NCI SRB cytotoxicity, Melanoma UACC-257; type: cell-based, human; details: UACC-257, Melanoma, 48 h
# Description: as §1, §2
# OVCAR-3 = experiment: NCI SRB cytotoxicity, Ovarian OVCAR-3; type: cell-based, human; details: OVCAR-3, Ovarian, 48 h
# Description: as §1, §2
# OVCAR-4 = experiment: NCI SRB cytotoxicity, Ovarian OVCAR-4; type: cell-based, human; details: OVCAR-4, Ovarian, 48 h
# Description: as §1, §2
# 786-0 = experiment: NCI SRB cytotoxicity, Renal 786-0; type: cell-based, human; details: 786-0, Renal, 48 h
# Description: as §1, §2
# A498 = experiment: NCI SRB cytotoxicity, Renal A498; type: cell-based, human; details: 48 h
# Description: as §1, §2
# ACHN = experiment: NCI SRB cytotoxicity, Renal ACHN; type: cell-based, human; details: 48 h
# Description: as §1, §2
# CAKI-1 = experiment: NCI SRB cytotoxicity, Renal CAKI-1; type: cell-based, human; details: CAKI-1, Renal, 48 h
# Description: as §1, §2
# RXF 393 = experiment: NCI SRB cytotoxicity, Renal RXF 393; type: cell-based, human; details: RXF 393, Renal, 48 h
# Description: as §2
# SN12C = experiment: NCI SRB cytotoxicity, Renal SN12C; type: cell-based, human; details: 48 h
# Description: as §1, §2
# TK-10 = experiment: NCI SRB cytotoxicity, Renal TK-10; type: cell-based, human; details: TK-10, Renal, 48 h
# Description: as §1, §2
# UO-31 = experiment: NCI SRB cytotoxicity, Renal UO-31; type: cell-based, human; details: UO-31, Renal, 48 h
# Description: as §2
# PC-3 = experiment: NCI SRB cytotoxicity, Prostate PC-3; type: cell-based, human; details: PC-3, Prostate, 48 h
# Description: as §2
# DU-145 = experiment: NCI SRB cytotoxicity, Prostate DU-145; type: cell-based, human; details: DU-145, Prostate, 48 h
# Description: as §2
# NCI/ADR-RES = experiment: NCI SRB cytotoxicity, Breast NCI/ADR-RES; type: cell-based, human; details: 48 h
# Description: as §1, §2
# MDA-MB-231/ATCC = experiment: NCI SRB cytotoxicity, Breast MDA-MB-231/ATCC; type: cell-based, human; details: 48 h
# Description: as §1, §2
# MDA-MB-435 = experiment: NCI SRB cytotoxicity, Breast MDA-MB-435; type: cell-based, human; details: MDA-MB-435, Breast, 48 h
# Description: as §1, §2
# BT-549 = experiment: NCI SRB cytotoxicity, Breast BT-549; type: cell-based, human; details: BT-549, Breast, 48 h
# Description: as §1, §2
# T-47D = experiment: NCI SRB cytotoxicity, Breast T-47D; type: cell-based, human; details: 48 h
# Description: as §1, §2
# HCC-2998 = experiment: NCI SRB cytotoxicity, Colon HCC-2998; type: cell-based, human; details: HCC-2998, Colon, 48 h
# Description: as §1, §2
compound,measurement,setting,value
"COc1cc2c(cc1OCCN1CCN(CCOc3cc4c(cc3OC)C(=O)N3CCC[C@H]3C=N4)CC1)N=C[C@@H]1CCCN1C2=O [Compound VIa, 1,1′-{[(bisethane-1,N-diyl)piperazine]dioxy}bis[(11aS)-7-methoxy-1,2,3,11a-tetrahydro-5H-pyrrolo[2,1-c][1,4]benzodiazepin-5-one]]",Log10 GI50 mean graph midpoint (MG_MID),human tumor cell lines,−4.69
same,Log10 LC50 mean graph midpoint (MG_MID),human tumor cell lines,−4.03
same,Log10 TGI mean graph midpoint (MG_MID),human tumor cell lines,−4.16
same,Log GI 50,MOLT-4,−5.68 mol/L
same,Log LC 50,MOLT-4,−4.10 mol/L
same,Log GI 50,RPMI-8226,−6.08 mol/L
same,Log LC 50,RPMI-8226,−4.33 mol/L
same,Log GI 50,SR,−6.68 mol/L
same,Log LC 50,SR,−5.21 mol/L
same,Log GI 50,EKVX,−4.00 mol/L
same,Log LC 50,EKVX,−4.00 mol/L
same,Log GI 50,NCI-H460,−4.95 mol/L
same,Log LC 50,NCI-H460,−4.00 mol/L
same,Log GI 50,COLO 205,−4.66 mol/L
same,Log LC 50,COLO 205,−4.00 mol/L
same,Log GI 50,HCT-15,−4.39 mol/L
same,Log LC 50,HCT-15,−4.00 mol/L
same,Log GI 50,HT-29,−4.58 mol/L
same,Log LC 50,HT-29,−4.00 mol/L
same,Log GI 50,SW-620,−4.68 mol/L
same,Log LC 50,SW-620,−4.00 mol/L
same,Log GI 50,SF-268,−4.95 mol/L
same,Log LC 50,SF-268,−4.00 mol/L
same,Log GI 50,SF-295,−5.06 mol/L
same,Log LC 50,SF-295,−4.00 mol/L
same,Log GI 50,SF-539,−4.97 mol/L
same,Log LC 50,SF-539,−4.00 mol/L
same,Log GI 50,SNB-19,−4.75 mol/L
same,Log LC 50,SNB-19,−4.00 mol/L
same,Log GI 50,SNB-75,−4.23 mol/L
same,Log LC 50,SNB-75,−4.00 mol/L
same,Log GI 50,M14,−4.61 mol/L
same,Log GI 50,SK-MEL-28,−4.22 mol/L
same,Log LC 50,SK-MEL-28,−4.00 mol/L
same,Log GI 50,SK-MEL-5,−4.75 mol/L
same,Log LC 50,SK-MEL-5,−4.00 mol/L
same,Log GI 50,UACC-257,−4.49 mol/L
same,Log LC 50,UACC-257,−4.00 mol/L
same,Log GI 50,OVCAR-3,−4.68 mol/L
same,Log LC 50,OVCAR-3,−4.00 mol/L
same,Log GI 50,OVCAR-4,−4.00 mol/L
same,Log LC 50,OVCAR-4,−4.00 mol/L
same,Log GI 50,786-0,−4.84 mol/L
same,Log LC 50,786-0,−4.00 mol/L
same,Log GI 50,A498,−4.29 mol/L
same,Log LC 50,A498,−4.00 mol/L
same,Log GI 50,ACHN,−4.82 mol/L
same,Log LC 50,ACHN,−4.00 mol/L
same,Log GI 50,CAKI-1,−5.04 mol/L
same,Log LC 50,CAKI-1,−4.00 mol/L
same,Log GI 50,RXF 393,−4.23 mol/L
same,Log LC 50,RXF 393,−4.00 mol/L
same,Log GI 50,SN12C,−4.90 mol/L
same,Log LC 50,SN12C,−4.00 mol/L
same,Log GI 50,TK-10,−4.63 mol/L
same,Log LC 50,TK-10,−4.00 mol/L
same,Log GI 50,UO-31,−4.12 mol/L
same,Log LC 50,UO-31,−4.00 mol/L
same,Log GI 50,PC-3,−4.44 mol/L
same,Log LC 50,PC-3,−4.00 mol/L
same,Log GI 50,DU-145,−4.36 mol/L
same,Log LC 50,DU-145,−4.00 mol/L
same,Log GI 50,NCI/ADR-RES,−4.00 mol/L
same,Log LC 50,NCI/ADR-RES,−4.00 mol/L
same,Log GI 50,MDA-MB-231/ATCC,−4.67 mol/L
same,Log LC 50,MDA-MB-231/ATCC,−4.00 mol/L
same,Log GI 50,MDA-MB-435,−4.71 mol/L
same,Log LC 50,MDA-MB-435,−4.08 mol/L
same,Log GI 50,BT-549,−4.56 mol/L
same,Log LC 50,BT-549,−4.00 mol/L
same,Log GI 50,T-47D,−4.57 mol/L
same,Log LC 50,T-47D,−4.00 mol/L
COc1cc2c(cc1OCCCCCN1CCN(CCCCCOc3cc4c(cc3OC)C(=O)N3CCC[C@H]3C=N4)CC1)N=C[C@@H]1CCCN1C2=O [Compound VId],Log10 GI50 mean graph midpoint (MG_MID),human tumor cell lines,−5.14
same,Log10 LC50 mean graph midpoint (MG_MID),human tumor cell lines,−4.04
same,Log10 TGI mean graph midpoint (MG_MID),human tumor cell lines,−4.26
same,Log GI 50,MOLT-4,−4.79 mol/L
same,Log LC 50,MOLT-4,−4.00 mol/L
same,Log GI 50,RPMI-8226,−5.59 mol/L
same,Log LC 50,RPMI-8226,−4.54 mol/L
same,Log GI 50,SR,−5.37 mol/L
same,Log LC 50,SR,−4.00 mol/L
same,Log GI 50,EKVX,−4.33 mol/L
same,Log LC 50,EKVX,−4.00 mol/L
same,Log GI 50,NCI-H460,−5.49 mol/L
same,Log LC 50,NCI-H460,−4.00 mol/L
same,Log GI 50,COLO 205,−5.49 mol/L
same,Log LC 50,COLO 205,−4.00 mol/L
same,Log GI 50,HCC-2998,−5.69 mol/L
same,Log LC 50,HCC-2998,−4.29 mol/L
same,Log GI 50,HCT-15,−4.25 mol/L
same,Log LC 50,HCT-15,−4.00 mol/L
same,Log GI 50,HT-29,−5.02 mol/L
same,Log LC 50,HT-29,−4.00 mol/L
same,Log GI 50,SW-620,−5.49 mol/L
same,Log LC 50,SW-620,−4.00 mol/L
same,Log GI 50,SF-268,−5.44 mol/L
same,Log GI 50,SF-295,−5.30 mol/L
same,Log LC 50,SF-295,−4.00 mol/L
same,Log GI 50,SF-539,−5.44 mol/L
same,Log LC 50,SF-539,−4.00 mol/L
same,Log GI 50,SNB-19,−4.00 mol/L
same,Log LC 50,SNB-19,−4.00 mol/L
same,Log GI 50,SNB-75,−4.51 mol/L
same,Log LC 50,SNB-75,−4.00 mol/L
same,Log GI 50,M14,−4.76 mol/L
same,Log GI 50,SK-MEL-28,−4.71 mol/L
same,Log LC 50,SK-MEL-28,−4.00 mol/L
same,Log GI 50,SK-MEL-5,−5.48 mol/L
same,Log LC 50,SK-MEL-5,−4.00 mol/L
same,Log GI 50,UACC-257,−4.75 mol/L
same,Log LC 50,UACC-257,−4.00 mol/L
same,Log GI 50,OVCAR-3,−5.32 mol/L
same,Log LC 50,OVCAR-3,−4.00 mol/L
same,Log GI 50,OVCAR-4,−5.38 mol/L
same,Log LC 50,OVCAR-4,−4.00 mol/L
same,Log GI 50,786-0,−5.61 mol/L
same,Log LC 50,786-0,−4.00 mol/L
same,Log GI 50,A498,−5.00 mol/L
same,Log LC 50,A498,−4.00 mol/L
same,Log GI 50,ACHN,−4.63 mol/L
same,Log LC 50,ACHN,−4.00 mol/L
same,Log GI 50,CAKI-1,−5.77 mol/L
same,Log LC 50,CAKI-1,−4.00 mol/L
same,Log GI 50,RXF 393,−8.00 mol/L
same,Log LC 50,RXF 393,−5.09 mol/L
same,Log GI 50,SN12C,−5.66 mol/L
same,Log LC 50,SN12C,−4.00 mol/L
same,Log LC 50,TK-10,−4.00 mol/L
same,Log GI 50,UO-31,−4.00 mol/L
same,Log LC 50,UO-31,−4.00 mol/L
same,Log GI 50,PC-3,−5.41 mol/L
same,Log LC 50,PC-3,−4.00 mol/L
same,Log GI 50,DU-145,−5.37 mol/L
same,Log LC 50,DU-145,−4.00 mol/L
same,Log GI 50,NCI/ADR-RES,−4.00 mol/L
same,Log LC 50,NCI/ADR-RES,−4.00 mol/L
same,Log GI 50,MDA-MB-231/ATCC,−5.42 mol/L
same,Log LC 50,MDA-MB-231/ATCC,−4.00 mol/L
same,Log GI 50,MDA-MB-435,−5.37 mol/L
same,Log LC 50,MDA-MB-435,−4.00 mol/L
same,Log GI 50,BT-549,−5.31 mol/L
same,Log LC 50,BT-549,−4.00 mol/L
same,Log GI 50,T-47D,−5.00 mol/L
same,Log LC 50,T-47D,−4.00 mol/L
